Patent US9089640B2, “Apparatus and kit for encapsulating at least one compound for therapeutic and/or diagnostic use in erythrocytes” (ERYDEL S.p.A., priority 2010, dated 2015)

System: autologous IgGs
Test: Recognition of treated erythrocytes by autologous IgGs (targeting to macrophages)
Assay type: cell-based
Experimental: The targeting to macrophages of erythrocytes containing drugs and/or contrast means can be achieved by the apparatus shown in the figure following a procedure similar to that used in example 1. When fludarabine was used as an encapsulating agent, a final concentration of 0.8 mM was obtained. The erythrocytes treated in this way were recognised by autologous IgGs in percentages over 80% the total number of processed cells.

Nc1nc(F)nc2c1ncn2[C@@H]1O[C@H](CO)[C@@H](O)[C@@H]1O [fludarabine]
Treated erythrocytes recognised by autologous IgGs, percentage of total number of processed cells: over 80%
